Data as given in article PMC12035797, “Peptidomimetics Activating the Proteasome: A New Perspective for Parkinson’s Treatment” (Journal of Medicinal Chemistry, 2025).
Where a SMILES comes first, the peptide text is derived from it. [ ]: non-standard residue; d: D form. NMeY = CN[C@@H](Cc1ccc(O)cc1)C(=O)O; Gly(N-CH2CH2OH) = O=C(O)CNCCO; NMeK = CN[C@@H](CCCCN)C(=O)O; Nlys = NCCCCNCC(=O)O

Key:
Assay type in all cases: biochemical
[1] = target: T1, human 20S proteasome, ChT-L peptidase; experiment: Chymotrypsin-like (ChT-L) activity of h20S probed with Suc-LLVY-AMC
T1 construct: human proteasome isolated from erythrocytes; from tissue; host or cells: human erythrocytes
Description: (§1) To assess the influence of substitutions increasing proteolytic stability on the modulators’ capacity to stimulate chymotrypsin-like, trypsin-like, and caspase-like activity of h20S, we used classic fluorogenic substrates: Suc-LLVY-AMC, Boc-LRR-AMC, and Z-LLE-AMC, respectively.
(§2) The effect of all synthesized peptidomimetics on the catalytic activity of the proteasome was tested using a human proteasome isolated from erythrocytes. Suc-LLVY-AMC, Boc-LRR-AMC, and Z-LLE-AMC fluorogenic substrates (Bachem, Bubendorf, Switzerland) were used for assessment of the chymotrypsin-, trypsin-, and caspase-like activities, respectively. A homemade FRET-type substrate Dabcyl-EDANS (Lys(Dabcyl)-[…]EDANS)-Gly)[26] was used as an additional probe. Stock solutions of the substrates and tested peptidomimetics were prepared in dimethyl sulfoxide (DMSO), ensuring that the final concentration of DMSO in all samples remained consistent at 2%. The small fluorogenic substrates were used at a final concentration of 100 μM, while Dabcyl-EDANS was prepared at a final concentration of 15 μM. […] Activity tests were conducted in 96-well plates using 50 mM Tris/HCl, pH 8.0, as an assay buffer. The final concentration of h20S proteasome was adjusted to 0.002 mg/mL (2.8 nM). The fluorescence of released aminomethylcoumarin (AMC) was monitored at 460 nm (λex was 380 nm), while the hydrolysis of Dabcyl-EDANS was detected by measuring emission at 493 nm (λex was set at 335 nm). Fluorescence measurements were taken continuously every 2 min over a 60 min period at 37 °C using a Tecan Infinite M200Pro spectrofluorometer (Tecan Trading AG, Männedorf, Switzerland). All activity assays were performed in at least three independent replicates. The relative activity was calculated in relation to the catalytic activity of the vehicle (DMSO)-treated latent proteasome, which was regarded as 100%. Statistical analysis was performed using the one-way ANOVA followed by Tukey’s post-hoc test. P-value <0.05 was considered statistically significant.

human 20S proteasome = tested on: T2, human 20S proteasome; experiment: h20S proteasome activity probed with FRET-type Dabcyl-EDANS substrate; conditions: for h20S stimulating capacity, Dabcyl-EDANS: 1.0-50 μM modulator
T2 construct: human proteasome isolated from erythrocytes; from tissue; host or cells: human erythrocytes
Excerpt: (§3) To assess the influence of substitutions increasing proteolytic stability on the modulators’ capacity to stimulate chymotrypsin-like, trypsin-like, and caspase-like activity of h20S, we used classic fluorogenic substrates: Suc-LLVY-AMC, Boc-LRR-AMC, and Z-LLE-AMC, respectively. To confirm the observed stimulating capacity, we also conducted assays using a FRET-type reporter peptide with a sequence consisting of 11 residues (Lys(Dabcyl)-[…]EDANS)-Gly).[27] As we checked, the activated 20S hydrolyzed this substrate after more than one residue (Lys, Gly, and Glu), which makes it a probe better reflecting the concerted action of the proteasome’s three peptidases. […] The discrepancy in the level of activation was mainly due to the greater sensitivity of the FRET substrate, as it is not digested, unlike the AMC-based probes, by the latent proteasome, which results in greater differences in fluorescence relative to the controls. […] The ability to affect individual peptidases of the proteasome in different ways is most likely related to the allosteric mechanism of action of the modulators. Binding at a site distant from the catalytic compartment may result in greater diversity in the pathways by which the signal reaches active sites and differential effects of that signal on each peptidase.
(§4) The effect of all synthesized peptidomimetics on the catalytic activity of the proteasome was tested using a human proteasome isolated from erythrocytes. Suc-LLVY-AMC, Boc-LRR-AMC, and Z-LLE-AMC fluorogenic substrates (Bachem, Bubendorf, Switzerland) were used for assessment of the chymotrypsin-, trypsin-, and caspase-like activities, respectively. A homemade FRET-type substrate Dabcyl-EDANS (Lys(Dabcyl)-[…]EDANS)-Gly)[26] was used as an additional probe. Stock solutions of the substrates and tested peptidomimetics were prepared in dimethyl sulfoxide (DMSO), ensuring that the final concentration of DMSO in all samples remained consistent at 2%. The small fluorogenic substrates were used at a final concentration of 100 μM, while Dabcyl-EDANS was prepared at a final concentration of 15 μM. Modulators were tested in concentrations ranging from 1.0 to 50 μM, with compounds containing TAT or 6R sequences tested at lower concentrations ranging from 0.5 to 10 μM. Activity tests were conducted in 96-well plates using 50 mM Tris/HCl, pH 8.0, as an assay buffer. The final concentration of h20S proteasome was adjusted to 0.002 mg/mL (2.8 nM). The fluorescence of released aminomethylcoumarin (AMC) was monitored at 460 nm (λex was 380 nm), while the hydrolysis of Dabcyl-EDANS was detected by measuring emission at 493 nm (λex was set at 335 nm). Fluorescence measurements were taken continuously every 2 min over a 60 min period at 37 °C using a Tecan Infinite M200Pro spectrofluorometer (Tecan Trading AG, Männedorf, Switzerland). All activity assays were performed in at least three independent replicates. The relative activity was calculated in relation to the catalytic activity of the vehicle (DMSO)-treated latent proteasome, which was regarded as 100%. Statistical analysis was performed using the one-way ANOVA followed by Tukey’s post-hoc test. P-value <0.05 was considered statistically significant.

[2] = tested on: T3, human 20S proteasome, C-L peptidase; experiment: Caspase-like (C-L) activity of h20S probed with Z-LLE-AMC; conditions: 100 μM Z-LLE-AMC
T3 construct: human proteasome isolated from erythrocytes; from tissue; host or cells: human erythrocytes
Excerpt: as §3, §4

[3] = tested on: T4, human 20S proteasome, T-L peptidase; experiment: Trypsin-like (T-L) activity of h20S probed with Boc-LRR-AMC; conditions: 100 μM Boc-LRR-AMC
T4 construct: human proteasome isolated from erythrocytes; from tissue; host or cells: human erythrocytes
Description: as §1, §2

[4] = 100 μM Suc-LLVY-AMC, whole concentration range

| ChT-L stimulating capacity, Suc-LLVY-AMC [1, 4] | h20S stimulating capacity, Dabcyl-EDANS (human 20S proteasome; 15 μM Dabcyl-EDANS) | C-L stimulating capacity, Z-LLE-AMC [2] | T-L stimulating capacity, Boc-LRR-AMC [3] | ChT-L stimulating capacity, Suc-LLVY-AMC ([1]; at higher concentrations) | Compound | also measured |
| --- | --- | --- | --- | --- | --- | --- |
|  | comparable stimulatory capacity | comparable stimulatory capacity | comparable stimulatory capacity | efficiency comparable to 2 and 2a | C[C@@H](O)[C@H](NC(=O)[C@H](Cc1ccccc1)NC(=O)[C@H](Cc1ccc(O)cc1)NC(=O)[C@@H](N)CCCCN)C(=O)NCC(=O)N[C@@H](CO)C(=O)N(CCCCN)CC(=O)N[C@@H](CC(=O)O)C(=O)N[C@@H](Cc1ccc(O)cc1)C(=O)N[C@@H](CCCNC(=N)N)C(=O)N[C@@H](CCCNC(=N)N)C(=O)N[C@@H](Cc1ccc(O)cc1)C(=O)N[C@@H](Cc1ccc(O)cc1)C(=O)N[C@@H](CO)C(=O)O [2b] (H-KYFTGS[Nlys]DYRRYYS-OH) |  |
| most effective h20S stimulators | most effective h20S stimulators |  |  |  | H-KYFTGSKDYRRYYS-OH [compound 2] |  |
| lower capacity of activating h20S | less strongly than 1 |  |  |  | C[C@@H](O)[C@H](NC(=O)[C@H](Cc1ccccc1)NC(=O)[C@H](Cc1ccc(O)cc1)NC(=O)[C@@H](N)CCCCN)C(=O)NCC(=O)N[C@@H](CO)C(=O)N[C@@H](CCCCN)C(=O)N[C@@H](CC(=O)O)C(=O)N[C@@H](Cc1c[nH]c2ccccc12)C(=O)N[C@@H](CCCNC(=N)N)C(=O)N(CCO)CC(=O)N[C@@H](Cc1ccc(O)cc1)C(=O)N[C@@H](Cc1ccc(O)cc1)C(=O)N[C@@H](CO)C(=O)O [1b] (H-KYFTGSKDWR[Gly(N-CH2CH2OH)]YYS-OH) |  |
|  | comparable stimulatory capacity | comparable stimulatory capacity | comparable stimulatory capacity | efficiency comparable to 2 and 2a | C[C@@H](O)[C@H](NC(=O)[C@H](Cc1ccccc1)NC(=O)[C@H](Cc1ccc(O)cc1)NC(=O)CNCCCCN)C(=O)NCC(=O)N[C@@H](CO)C(=O)N(CCCCN)CC(=O)N[C@@H](CC(=O)O)C(=O)N[C@@H](Cc1ccc(O)cc1)C(=O)N[C@@H](CCCNC(=N)N)C(=O)N[C@@H](CCCNC(=N)N)C(=O)N[C@@H](Cc1ccc(O)cc1)C(=O)N[C@@H](Cc1ccc(O)cc1)C(=O)N[C@@H](CO)C(=O)O [2c] (H-[Nlys]YFTGS[Nlys]DYRRYYS-OH) | ChT-L stimulating capacity, Suc-LLVY-AMC ([1]; at 1 μM concentration): same moderate efficiency |

| Compound | ChT-L stimulating capacity, Suc-LLVY-AMC [1, 4] | h20S stimulating capacity, Dabcyl-EDANS (human 20S proteasome; 15 μM Dabcyl-EDANS) | C-L stimulating capacity, Z-LLE-AMC [2] | T-L stimulating capacity, Boc-LRR-AMC [3] | ChT-L stimulating capacity, Suc-LLVY-AMC ([1]; at higher concentrations) | also measured |
| --- | --- | --- | --- | --- | --- | --- |
| RKKRRQRRR [tat, fragment of the HIV-1 Tat 48–58 peptide used as cell-penetrating peptide, tested alone as control, reference compound] | proteasome inhibition |  |  |  |  |  |
| CN[C@@H](CCCCN)C(=O)N(C)[C@@H](Cc1ccc(O)cc1)C(=O)N[C@@H](Cc1ccccc1)C(=O)N[C@H](C(=O)NCC(=O)N[C@@H](CO)C(=O)N[C@@H](CCCCN)C(=O)N[C@@H](CC(=O)O)C(=O)N[C@@H](Cc1c[nH]c2ccccc12)C(=O)N[C@@H](CCCNC(=N)N)C(=O)N[C@@H](CO)C(=O)N[C@@H](Cc1ccc(O)cc1)C(=O)N[C@@H](Cc1ccc(O)cc1)C(=O)N[C@@H](CO)C(=O)O)[C@@H](C)O [1e] (H-[NMeK][NMeY]FTGSKDWRSYYS-OH) |  | did not lose their ability to effectively stimulate h20S |  |  |  | stimulation of h20S activity, Dabcyl-EDANS probe (human 20S proteasome; 15 μM Dabcyl-EDANS, level reached vs latent proteasome): 12 fold; h20S stimulating potency, Dabcyl-EDANS (human 20S proteasome; at the lowest concentrations): even more potent than 1; stimulation of h20S activity, Suc-LLVY-AMC probe ([1]; 100 μM Suc-LLVY-AMC, level reached vs latent proteasome): 8 fold |
